Several values for one entry are separate records, joined by “and”; a condition that tells them apart may be missing. Equal entries are not always repeated. Inconclusive results and toxic doses are left out.
Test system: BDF1 mice, P388 leukemia ip, median survival T/C
Experiment: NCI In Vivo Anticancer Drug Screen. Data for tumor model P388 Leukemia (intraperitoneal) in B6D2F1 (BDF1) mice
Conditions: endpoint: median survival time, higher = longer survival
Method in brief: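 Each value expresses how treatment altered survival: treated-mouse outcome over vehicle-mouse outcome, both groups bearing the transplanted tumour.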

[1] = dose: 50.0 mg/kg/injection, schedule: Q01DX009 (ip), vehicle: saline with Tween-80
[2] = dose: 100.0 mg/kg/injection, schedule: Q01DX009 (ip), vehicle: Klucel (hydroxypropylcellulose) (HPC)
[3] = dose: 100.0 mg/kg/injection, schedule: Q04DX003 (ip), vehicle: Klucel (hydroxypropylcellulose) (HPC)
[4] = dose: 200.0 mg/kg/injection, schedule: Q01DX009 (ip), vehicle: Klucel (hydroxypropylcellulose) (HPC)
[5] = dose: 200.0 mg/kg/injection, schedule: Q04DX003 (ip), vehicle: Klucel (hydroxypropylcellulose) (HPC)
[6] = dose: 400.0 mg/kg/injection, schedule: Q01DX009 (ip), vehicle: Klucel (hydroxypropylcellulose) (HPC)
[7] = dose: 400.0 mg/kg/injection, schedule: Q04DX003 (ip), vehicle: Klucel (hydroxypropylcellulose) (HPC)
[8] = dose: 100.0 mg/kg/injection, schedule: Q01DX009 (ip), vehicle: saline with Tween-80
[9] = dose: 200.0 mg/kg/injection, schedule: Q01DX009 (ip), vehicle: saline with Tween-80
[10] = dose: 400.0 mg/kg/injection, schedule: Q01DX009 (ip), vehicle: saline with Tween-80
[11] = dose: 100.0 mg/kg/injection, schedule: Q04DX003 (ip), vehicle: saline with Tween-80
[12] = dose: 400.0 mg/kg/injection, schedule: Q04DX003 (ip), vehicle: saline with Tween-80
[13] = dose: 50.0 mg/kg/injection, schedule: Q04DX003 (ip), vehicle: saline
[14] = dose: 100.0 mg/kg/injection, schedule: Q04DX003 (ip), vehicle: saline

In the case of `CN=C(N)Nc1ccc(C(=O)O)cc1`, the T/C (dose: 50.0 mg/kg/injection, schedule: Q01DX009 (ip), vehicle: water) is reported as 93 % of control, the T/C (dose: 100.0 mg/kg/injection, schedule: Q01DX009 (ip), vehicle: water) is reported as 99 % of control and the T/C (dose: 100.0 mg/kg/injection, schedule: Q04DX003 (ip), vehicle: water) is reported as 100 % of control. For the same compound, the T/C (dose: 200.0 mg/kg/injection, schedule: Q01DX009 (ip), vehicle: water) was 90 % of control, the T/C (dose: 200.0 mg/kg/injection, schedule: Q04DX003 (ip), vehicle: water) was 94 % of control and the T/C (dose: 400.0 mg/kg/injection, schedule: Q01DX009 (ip), vehicle: water) was 92 % of control. The T/C (dose: 400.0 mg/kg/injection, schedule: Q04DX003 (ip), vehicle: water) was 88 % of control.

With `c1ccc2c(c1)nnn1c3ncccc3nc21` the T/C [1] was 115 % of control.

In the case of `CC1CC(C)(C)CC2CC(C(=O)O)(C(=O)O)CC12` (stereo not given), the T/C (dose: 25.0 mg/kg/injection, schedule: Q04DX003 (ip), vehicle: saline sonified) is reported as 110 % of control, the T/C (dose: 50.0 mg/kg/injection, schedule: Q04DX003 (ip), vehicle: saline sonified) is reported as 100 % of control and the T/C (dose: 100.0 mg/kg/injection, schedule: Q04DX003 (ip), vehicle: saline sonified) is reported as 100 % of control.

`CC(=O)c1ccc(Cc2ccc(C(C)=O)cc2)cc1` was tested, and the T/C [2] was 104 % of control, the T/C [3] was 100 % of control and the T/C [4] was 104 % of control. The T/C [5] was 109 % of control, the T/C [6] was 100 % of control and the T/C [7] was 95 % of control.

With `CC(C)c1cc(C(C)C)nc(NNc2nc(C(C)C)cc(C(C)C)n2)n1` the T/C [8] was 90 % of control, the T/C [9] was 90 % of control and the T/C [10] was 100 % of control.

With `COc1ccc2c(c1)C(=O)CC=C(C(=O)O)N2` the T/C [8] was 112 % of control, the T/C [11] was 100 % of control and the T/C [9] was 112 % of control. The T/C (dose: 200.0 mg/kg/injection, schedule: Q04DX003 (ip), vehicle: saline with Tween-80) was 115 % of control, the T/C [10] was 116 % of control and the T/C [12] was 115 % of control.

For `Cn1c(=O)c2c(nc(CCCCc3nc4c(c(=O)n(C)c(=O)n4C)n3C)n2C)n(C)c1=O`, the T/C [8] was 91 % of control and the T/C [9] was 88 % of control.

`O=c1[nH]c(=O)n(C2CC(O)C(CO)O2)cc1F` (stereo not given) was tested, and the T/C (dose: 5.0 mg/kg/injection, schedule: Q01DX010 (ip), vehicle: saline) was 113 % of control, the T/C (dose: 15.0 mg/kg/injection, schedule: Q03HX024 (ip), vehicle: saline) was 172 % of control and the T/C (dose: 22.0 mg/kg/injection, schedule: Q03HX024 (ip), vehicle: saline) was 186 % of control. The T/C (dose: 25.0 mg/kg/injection, schedule: Q01DX009 (ip), vehicle: saline) was 186 % of control, the T/C (dose: 33.0 mg/kg/injection, schedule: Q01DX009 (ip), vehicle: saline) was 173 % of control and the T/C (dose: 34.0 mg/kg/injection, schedule: Q03HX024 (ip), vehicle: saline) was 200 % of control. For the same compound, the T/C (dose: 40.0 mg/kg/injection, schedule: Q01DX009 (ip), vehicle: water) was 168 % of control and 172 % of control and 200 % of control, the T/C (dose: 44.0 mg/kg/injection, schedule: Q01DX009 (ip), vehicle: saline) was 166 % of control and the T/C (dose: 49.0 mg/kg/injection, schedule: Q01DX009 (ip), vehicle: saline) was 202 % of control. For the same compound, the T/C (dose: 50.0 mg/kg/injection, schedule: Q01DX009 (ip), vehicle: saline) was 218 % of control, the T/C (dose: 50.0 mg/kg/injection, schedule: Q03HX024 (ip), vehicle: saline) was 215 % of control and the T/C (dose: 60.0 mg/kg/injection, schedule: Q01DX009 (ip), vehicle: water) was 190 % of control (2×) and 195 % of control. The T/C (dose: 67.0 mg/kg/injection, schedule: Q01DX009 (ip), vehicle: saline) was 185 % of control, the T/C (dose: 73.0 mg/kg/injection, schedule: Q01DX009 (ip), vehicle: saline) was 202 % of control and the T/C (dose: 74.0 mg/kg/injection, schedule: Q01DX009 (ip), vehicle: saline) was 169 % of control and 183 % of control and 186 % of control. For the same compound, the T/C (dose: 80.0 mg/kg/injection, schedule: Q01DX009 (ip), vehicle: water) was 190 % of control and 200 % of control and 222 % of control, the T/C (dose: 100.0 mg/kg/injection, schedule: Q01DX009 (ip), vehicle: saline) was 109 % of control and 206 % of control and the T/C (dose: 155.0 mg/kg/injection, schedule: Q04DX004 (ip), vehicle: saline) was 157 % of control. The T/C (dose: 165.0 mg/kg/injection, schedule: Q01DX009 (ip), vehicle: saline) was 109 % of control, the T/C (dose: 205.0 mg/kg/injection, schedule: Q01DX001 (ip), vehicle: saline) was 124 % of control and the T/C (dose: 233.0 mg/kg/injection, schedule: Q04DX004 (ip), vehicle: saline) was 170 % of control. The T/C (dose: 350.0 mg/kg/injection, schedule: Q04DX004 (ip), vehicle: saline) was 190 % of control, the T/C (dose: 525.0 mg/kg/injection, schedule: Q04DX004 (ip), vehicle: saline) was 110 % of control and the T/C (dose: 685.0 mg/kg/injection, schedule: Q01DX001 (ip), vehicle: saline) was 157 % of control. The T/C (dose: 1025.0 mg/kg/injection, schedule: Q01DX001 (ip), vehicle: saline) was 172 % of control.

In the case of `CC1CCCCN1O` (stereo not given), the T/C (dose: 100.0 mg/kg/injection, schedule: Q04DX002 (ip), vehicle: saline with Tween-80) is reported as 100 % of control, the T/C (dose: 200.0 mg/kg/injection, schedule: Q04DX002 (ip), vehicle: saline with Tween-80) is reported as 105 % of control and the T/C (dose: 400.0 mg/kg/injection, schedule: Q04DX002 (ip), vehicle: saline with Tween-80) is reported as 96 % of control.

`CCOC(=O)NP(=O)(N1CC1(C)C)N1CC1(C)C` (stereo not given) was tested, and the T/C (dose: 31.3 mg/kg/injection, schedule: Q01DX010 (ip), vehicle: saline) was 175 % of control, the T/C (dose: 62.5 mg/kg/injection, schedule: Q01DX010 (ip), vehicle: saline) was 175 % of control and the T/C (dose: 125.0 mg/kg/injection, schedule: Q01DX010 (ip), vehicle: saline) was 200 % of control. For the same compound, the T/C (dose: 250.0 mg/kg/injection, schedule: Q01DX010 (ip), vehicle: saline) was 225 % of control.

In the case of `BrC1C2CC3C(C2)C13` (stereo not given), the T/C [2] is reported as 100 % of control, the T/C [4] is reported as 86 % of control and the T/C [6] is reported as 109 % of control.

`ClCC[N+]12CC[N+](CCCl)(CC1)C2` was tested, and the T/C (dose: 12.5 mg/kg/injection, schedule: Q01DX009 (ip), vehicle: saline with Tween-80) was 103 % of control, the T/C (dose: 25.0 mg/kg/injection, schedule: Q01DX009 (ip), vehicle: saline with Tween-80) was 118 % of control and 116 % of control and the T/C (dose: 25.0 mg/kg/injection, schedule: Q04DX003 (ip), vehicle: saline with Tween-80) was 108 % of control. For the same compound, the T/C (dose: 50.0 mg/kg/injection, schedule: Q04DX003 (ip), vehicle: saline with Tween-80) was 93 % of control and 108 % of control, the T/C [13] was 103 % of control and the T/C [8] was 150 % of control and 206 % of control and 168 % of control. The T/C [11] was 171 % of control, the T/C [14] was 122 % of control and the T/C (dose: 200.0 mg/kg/injection, schedule: Q04DX003 (ip), vehicle: saline) was 165 % of control. The T/C (dose: 264.0 mg/kg/injection, schedule: Q04DX003 (ip), vehicle: saline with Tween-80) was 200 % of control, the T/C [10] was 112 % of control and the T/C (dose: 400.0 mg/kg/injection, schedule: Q01DX009 (ip), vehicle: saline) was 178 % of control. For the same compound, the T/C [12] was 96 % of control, the T/C (dose: 400.0 mg/kg/injection, schedule: Q04DX003 (ip), vehicle: saline) was 244 % of control and the T/C (dose: 600.0 mg/kg/injection, schedule: Q04DX003 (ip), vehicle: saline with Tween-80) was 95 % of control.

`CC1(C)CC(=O)C(C(=O)Nc2ccc(Cl)cc2)C(=O)C1` was tested, and the T/C [1] was 98 % of control, the T/C [8] was 93 % of control and the T/C [9] was 89 % of control.

`OCC1OC(n2cc(Cl)c3cncnc32)C(O)C1O` (stereo not given) was tested, and the T/C [13] was 100 % of control and the T/C [14] was 90 % of control.

`COc1cc2c(cc1OC)C(=O)Cc1ccc3c(c1CN(C)CC2)OCO3` was tested, and the T/C (dose: 1.5 mg/kg/injection, schedule: Q01DX009 (ip), vehicle: saline sonified) was 95 % of control, the T/C (dose: 3.0 mg/kg/injection, schedule: Q01DX009 (ip), vehicle: saline sonified) was 100 % of control and the T/C (dose: 6.0 mg/kg/injection, schedule: Q01DX009 (ip), vehicle: saline sonified) was 112 % of control.

For `O=C1C=CC(=O)c2c(O)cccc21`, the T/C (dose: 1.56 mg/kg/injection, schedule: Q01DX009 (ip), vehicle: saline with Tween-80) was 90 % of control, the T/C (dose: 3.13 mg/kg/injection, schedule: Q01DX009 (ip), vehicle: saline with Tween-80) was 95 % of control and the T/C (dose: 6.25 mg/kg/injection, schedule: Q01DX009 (ip), vehicle: saline with Tween-80) was 95 % of control.

For `O=C(O)C1CC=CCCC1` (stereo not given), the T/C [2] was 95 % of control, the T/C [3] was 91 % of control and the T/C [4] was 104 % of control. For the same compound, the T/C [5] was 95 % of control, the T/C [6] was 104 % of control and the T/C [7] was 91 % of control.

Reference: PubChem BioAssay AID328 (DTP/NCI, 2004)
